From US20140213575A1, “6H-Thieno[3,2-f][1,2,4]triazolo[4,3-a][1,4]diazepines” (BAYER INTELLECTUAL PROPERTY GMBH, priority 2011, published 2014) come the findings set out here.

A word on the IC50: it is the concentration that inhibits the measured activity by half.

The test system of assay [1] is MCF-7 cells. As to the kind of experiment: Cellular proliferation assay (alamarBlue) MCF-7. In kind it is cell-based. As to conditions: Homo sapiens, MCF7, 96 hours, read-out: Breast MCF-7 IC50. Here is the method: (§1) In accordance with the invention, the ability of the substances to inhibit the proliferation of various cell lines was determined. Cell viability was determined by means of the alamarBlue® reagent (Invitrogen). […] After incubation overnight at 37° C., the fluorescence values were determined (CI values). […] Then the fluorescence values were determined (CO values).
(§2) The substances were investigated in the cell lines in Table 1, which for example represent the stated indications: […]
(Alamar Blue is a resazurin reagent that responds to reducing activity.)

For assay [2], the system named is VCaP cells. As to the kind of experiment: Cellular proliferation assay (alamarBlue) VCaP. In kind it is cell-based. As to conditions: Homo sapiens, 168 hours, read-out: Prostate VCaP IC50. Here is the method: as §1, §2
Assay [3] deals with T1, BRD4(1) (Homo sapiens, UniProt O60885).
T1 construct: BRD4(1) (amino acids 44-168); made in house; host or cells: E. coli
Description: Binding assay BRD4/acetylated peptide H4 (TR-FRET/HTRF protein-protein interaction assay). As to conditions: inhibition of interaction BRD4(1) / acetylated histone H4 peptide, TR-FRET. The source says:
Binding Assay BRD4/Acetylated Peptide H4 (“PRQ”)
To assess the BRD4 binding strength of the substances described in this application, their capacity for dose-dependent inhibition of the interaction between BRD4 and acetylated histone H4 was quantified.
For this purpose, a time-resolved fluorescence resonance energy transfer (TR-FRET) assay was used, which measures the binding between N-terminally His6-tagged BRD4(1) (amino acids 44-168) and a synthetic acetylated histone H4 (Ac-H4) peptide with the sequence GRGK(Ac)GGK(Ac)GLGK(Ac)GGAK(Ac)RHGSGSK-biotin. The recombinant BRD4 protein (produced in-house) was expressed in E. coli and was purified by (Ni-NTA) affinity chromatography and (Sephadex G-75) size-exclusion chromatography. The Ac-H4 peptide can be purchased for example from Biosyntan (Berlin, Germany).
In the assay, typically 11 different concentrations of each substance (0.1 nM, 0.33 nM, 1.1 nM, 3.8 nM, 13 nM, 44 nM, 0.15 μM, 0.51 μM, 1.7 μM, 5.9 μM and 20 μM) were measured as duplicates on the same microtitre plate. For this, 100-fold concentrated solutions in DMSO were prepared by serial dilutions (1:3.4) of a 2 mM stock solution in a clear, 384-well microtitre plate (Greiner Bio-One, Frickenhausen, Germany). From this, 50 nl was transferred to a black assay plate (Greiner Bio-One, Frickenhausen, Germany). The assay was started by supplying 2 μl of a 2.5-fold concentrated BRD4 solution (usually 10 to 50 nM final concentration in the 5 μl of the reaction volume) in aqueous assay buffer [50 mM HEPES pH 7.5, 50 mM sodium chloride (NaCl), 0.25 mM CHAPS and 0.05% serum albumin (BSA)] to the substances in the assay plate. This was followed by a 10-minute incubation step at 22° C. for the pre-equilibration of putative complexes between BRD4 and the substances.
The mixture was then incubated in the dark for one hour at 22° C. and then overnight at 4° C. The formation of BRD4/Ac-H4 complexes was determined by measuring the resonance energy transfer from the streptavidin-Eu-cryptate to the anti-6His-XL665 antibody that is present in the reaction. For this, the fluorescence emissions at 620 nm and 665 nm were measured after excitation at 330-350 nm in a TR-FRET measuring instrument, e.g. a Rubystar or Pherastar (both from BMG Lab Technologies, Offenburg, Germany) or a Viewlux (Perkin-Elmer). The ratio of the emissions at 665 nm and at […] was taken as an indicator of the amount of BRD4/Ac-H4 complexes formed.
The data obtained (ratio) were normalized, wherein 0% inhibition corresponded to the mean value from the measured values of a set of controls (usually 32 data points), in which all reagents were contained. 50 nl DMSO (100%) was used instead of test substances. Inhibition of 100% corresponded to the mean value from the measured values of a set of controls (usually 32 data points), in which all reagents except BRD4 were contained. The IC50 value was determined by regression analysis based on a 4-parameter equation (minimum, maximum, IC50, Hill; Y=Max+(Min−Max)/(1+(X/IC50)^Hill)) using Bayer's own analysis software.
(In TR-FRET formats the signal depends on donor and acceptor labels being close together.)

Assay [4] relates to HeLa-MaTu cells. As to the kind of experiment: Cellular proliferation assay (alamarBlue) HeLa-MaTu. In kind it is cell-based. As to conditions: 96 hours, read-out: Cervix HeLa-MaTu IC50. Here is the method:
as §1, §2

Assay [5] relates to MOLP-8 cells. As to the kind of experiment: Cellular proliferation assay (alamarBlue) MOLP-8. In kind it is cell-based. As to conditions: Homo sapiens, 120 hours, read-out: Multiple myeloma MOLP-8 IC50. The procedure: as §1, §2
Assay [6] concerns B16F10 cells. As to the kind of experiment: Cellular proliferation assay (alamarBlue) B16F10. The assay is classed as cell-based. As to conditions: Mus musculus, B16-F10, 96 hours, read-out: Melanoma B16F10 IC50. Here is the method: as §1, §2
Assay [7] relates to MOLM-13 cells. As to the kind of experiment: Cellular proliferation assay (alamarBlue) MOLM-13. In kind it is cell-based. As to conditions: Homo sapiens, 96 hours, read-out: Leukaemia MOLM-13 IC50. The procedure:
as §1, §2

Assay [8] relates to LAPC-4 cells. As to the kind of experiment: Cellular proliferation assay (alamarBlue) LAPC-4. As to conditions: Homo sapiens, LAPC4, 168 hours, read-out: Prostate LAPC-4 IC50. The assay is classed as cell-based. The procedure: as §1, §2
Assay [9] concerns LNCaP cells. As to the kind of experiment: Cellular proliferation assay (alamarBlue) LNCaP. The assay is classed as cell-based. As to conditions: Homo sapiens, 168 hours, read-out: Prostate LNCaP IC50. Here is the method: as §1, §2
Assay [10] deals with MDA-MB-231 cells. Description: Cellular proliferation assay (alamarBlue) MDA-MB-231. The assay is classed as cell-based. As to conditions: Homo sapiens, 96 hours, read-out: Breast MDA-MB-231 IC50. Here is the method: as §1, §2

The structures appear in SMILES notation.

For the molecule `Cc1sc2c(c1C)C(c1ccc(Cl)cc1)=N[C@@H](CC(=O)NC1C[C@H]3CCC[C@@H](C1)N3C(=O)OC(C)(C)C)c1nnc(C)n1-2` (stereo partly drawn) [Example 3, (1R,5S)-tert-Butyl-3-({2-[(S)-4-(4-chlorophenyl)-2,3,9-trimethyl-6H-thieno[3,2-f][1,2,4]triazolo[4,3-a][1,4]diazepin-6-yl]acetyl}amino)-9-azabicyclo[3.3.1]nonane-9-carboxylate], the IC50 in assay [1] was 20 nM; in assay [2], 65 nM; in assay [3], 240 nM; in assay [4], 40 nM; in [5] it was 170 nM; in [6], 29 nM. Also, the IC50 amounted to 83 nM in assay [7], 41 nM in assay [8], 17 nM in [9] and 129 nM in assay [10].

As for `Cc1sc2c(c1C)C(c1ccc(Cl)cc1)=N[C@@H](CC(=O)NC1C[C@H]3CCC[C@@H](C1)N3)c1nnc(C)n1-2` (stereo partly drawn) [Example 4, N-[(1R,5S)-9-Azabicyclo[3.3.1]non-3-yl]-2-[(S)-4-(4-chlorophenyl)-2,3,9-trimethyl-6H-thieno[3,2-f][1,2,4]triazolo[4,3-a][1,4]diazepin-6-yl]acetamide], the IC50 came to 300 nM in assay [1]; 71 nM in [2]; 15 nM in assay [3]; 753 nM in assay [4]; 240 nM in assay [5]; 1050 nM in [6]. Besides, the IC50 in assay [7] was found to be 57 nM; in assay [8] it was 228 nM; in assay [9] it was 353 nM; in [10], 604 nM.

On to `Cc1sc2c(c1C)C(c1ccc(Cl)cc1)=N[C@@H](CC(=O)N1CC3CCC(C1)O3)c1nnc(C)n1-2` [Example 5, 2-[(S)-4-(4-Chlorophenyl)-2,3,9-trimethyl-6H-thieno[3,2-f][1,2,4]triazolo[4,3-a][1,4]diazepin-6-yl]-1-(8-oxa-3-azabicyclo[3.2.1]oct-3-yl)ethan-1-one], for which the IC50 came out at 93 nM in assay [1]; 67 nM in assay [2]; 78 nM in [3]; 331 nM in assay [4]; 120 nM in [5]; 91 nM in [6]. The IC50 is 127 nM in [7], 65 nM in assay [8], 40 nM in [9] and 138 nM in assay [10].

For the molecule `Cc1sc2c(c1C)C(c1ccc(Cl)cc1)=N[C@@H](CC(=O)N1CCC3(COC3)C1)c1nnc(C)n1-2` [Example 6, 2-[(S)-4-(4-Chlorophenyl)-2,3,9-trimethyl-6H-thieno[3,2-f][1,2,4]triazolo[4,3-a][1,4]diazepin-6-yl]-1-(2-oxa-6-azaspiro[3.4]oct-6-yl)ethan-1-one], the IC50 in assay [1] was 98 nM; in [2] it was 65 nM; in assay [3], 29 nM; in [4], 251 nM; in [5] it was 110 nM; in [6], 87 nM. Also, the IC50 in assay [7] was found to be 131 nM; in assay [8] it was 72 nM; in assay [9], 36 nM; in assay [10] it was 122 nM.

For `Cc1sc2c(c1C)C(c1ccc(Cl)cc1)=N[C@@H](CC(=O)N1CCC3(CC1)COC3)c1nnc(C)n1-2` [Example 7], the half-inhibitory concentration (IC50) in [1] was determined as 59 nM; in [2] it was 35 nM; in assay [3], 32 nM; in assay [4], 167 nM; in assay [5] it was 51 nM; in assay [6] it was 48 nM. Further, the IC50 was 68 nM in [7], 32 nM in [8], 102 nM in assay [9] and 69 nM in assay [10].

In the case of `Cc1sc2c(c1C)C(c1ccc(Cl)cc1)=N[C@@H](CC(=O)N1CC3CCC1CC3)c1nnc(C)n1-2` [Example 8, (S)-1-(2-Azabicyclo[2,2,2]oct-2-yl)-2-[(6S)-4-(4-chlorophenyl)-2,3,9-trimethyl-6H-thieno[3,2-j][1,2,4]triazolo[4,3-a][1,4]diazepin-6-yl]ethanone], the IC50 turned out to be 84 nM in [3]; 297 nM in assay [6]; 1060 nM in assay [7]; 133 nM in assay [8]; 363 nM in assay [10].

As for `Cc1sc2c(c1C)C(c1ccc(Cl)cc1)=N[C@@H](CC(=O)N1C3CCC1CC3)c1nnc(C)n1-2` [Example 9, (S)-1-(7-Azabicyclo[2.2.1]hept-7-yl)-2-[(6S)-4-(4-chlorophenyl)-2,3,9-trimethyl-6H-thieno[3,2-f][1,2,4]triazolo[4,3-a][1,4]diazepin-6-yl]ethanone], the half-inhibitory concentration (IC50) in assay [3] is 75 nM; in [6], 414 nM; in [7] it was 838 nM; in assay [8], 88 nM; in [10], 291 nM.
